The values that follow come from patent US9440914B2, “Method for treating glioblastomas and other tumors” (THE FEINSTEIN INSTITUTE FOR MEDICAL RESEARCH, priority 2013, dated 2016).

Data set [1] has as its system GL261 murine glioblastoma cells co-cultured with microglia. Description: 3-dimensional microglia-glioblastoma co-culture transwell invasion assay (microglia-stimulated GL261 invasion). The class given is cell-based. Conditions: 3:1 glioblastoma cells to microglia, BME, no serum, 48 h; read-out: IC50 for interference with microglia-stimulated GL261 invasion. The protocol:
Invasion Assays: Glioblastoma and microglial cells were labelled with cell tracker green CMFDA and with cell tracker red CMTPX, respectively, and then embedded in 50 μL of 10 mg/mL basement membrane extract (BME) (Trevigen). The mixture was then placed in a transwell insert (previously coated with 1 μg/mL fibronectin on the bottom side of the 8 μm filter to maintain adhesion of the cells that invaded through the filter) and allowed to polymerize for 30 min at 37° C. Subsequently, serum free medium was added to both wells. To maintain constant cell numbers, cells were plated at a density per invasion chamber of 15×10^4 GL261 cells and 5×10^4 microglia cells in MSFM. Semapimod or its diluent was added at varying concentrations into the BME and in the media above and below the transwell. Invasion chambers were incubated for 48 h and subsequently fixed in 3.7% formaldehyde in phosphate-buffered saline (PBS). The gel in the transwell inserts was carefully removed. Invaded glioblastoma cells were imaged with a Zeiss Axiovision inverted microscope and a 10× objective. All invaded cells were counted.
To determine the effect of microglia on the invasive properties of glioblastoma cells, a novel 3-dimensional microglia-glioblastoma co-culture assay was designed that provides a better approximation of the in vivo setting than a 2-dimensional configuration. […]

For a further data set, the system named is GL261 cells. In words: serum-stimulated GL261 invasion (transwell, BME). The note with it: 10 μM; 10% FBS in bottom well, 48 h. In kind it is cell-based, murine. The protocol:
FIG. 1A-1C. Semapimod inhibits microglia-stimulated glioblastoma invasion in vitro. (A) Semapimod inhibits microglia-stimulated glioblastoma cell invasion. GL261 cells were embedded in basement membrane extract (BME) with or without microglia in the presence of the indicated concentrations of semapimod, layered in the transwell and incubated for 48 h. The number of invading GL261 cells was determined. Data shown represent the average+/−SEM of 3 independent experiments, performed in duplicate. […] GL261 cells embedded in BME in the presence of the indicated concentration of semapimod, were layered in the transwell and incubated for 48 h. Serum (10% FBS) was added to the bottom well. The number of invading GL261 cells was determined. Data shown represent the average+/−SEM of 3 independent experiments. (C) Semapimod inhibits glioblastoma cell-stimulated microglia invasion. Glioblastoma cells were plated in the bottom well and microglia were embedded in BME in the presence or absence of 200 nM semapimod, layered in the transwell and incubated for 48 h. […]
Invasion Assays: Glioblastoma and microglial cells were labelled with cell tracker green CMFDA and with cell tracker red CMTPX, respectively, and then embedded in 50 μL of 10 mg/mL basement membrane extract (BME) (Trevigen). […] All invaded cells were counted.

The conditions of data set [2]: phase II clinical trial for Crohn's disease; cited from earlier work.

SMILES strings stand for the structures.

By IC50 is commonly meant the concentration needed to halve the response being measured. `C/C(=N\NC(=N)N)c1cc(NC(=O)CCCCCCCCC(=O)Nc2cc(/C(C)=N/NC(=N)N)cc(/C(C)=N/NC(=N)N)c2)cc(/C(C)=N/NC(=N)N)c1` [semapimod]: in data set [1], the IC50 is under 50 nM. The “effect on serum-stimulated GL261 invasion” value in the data set with GL261 cells is given as “does not affect”. In addition, in data set [2], the tolerability in humans result is recorded as “very well tolerated”.
